Results taken from article PMC6218249 (Bioorganic & medicinal chemistry letters, 2018).
Converted amounts (≈) assume the structure as drawn.

How the values were obtained:
[1] = PAMPA permeability
[2] = physchem; conditions: pH 7.4
[3] = In vivo pharmacokinetics in C57BL/6 mice; conditions: C57BL/6, mouse, plasma, other: intravenous and oral, 3 mg/kg

NS(=O)(=O)c1ccc(-c2cnn3cc(-c4ccc(N5CCNCC5)nc4)cnc23)c2ccccc12 [Compound 12]
PAMPA (x10^−6 cm/s) [1]: 8.3 x10^−6 cm/s

CN(C)CCOc1ccc(-c2cnc3c(-c4ccc(S(N)(=O)=O)c5ccccc45)cnn3c2)cn1 [Compound 13]
PAMPA (x10^−6 cm/s) [1]: 8.8 x10^−6 cm/s

NS(=O)(=O)c1ccc(-c2cnn3cc(-c4ccc(OCCN5CCCCC5)nc4)cnc23)c2ccccc12 [Compound 14]
PAMPA (x10^−6 cm/s) [1]: 364.7 x10^−6 cm/s

NS(=O)(=O)c1ccc(-c2cnn3cc(-c4ccc(C5CCNCC5)cc4)cnc23)c2ccccc12 [Compound 15]
PAMPA (x10^−6 cm/s) [1]: 78.6 x10^−6 cm/s

CC(C)(CN1CCCCC1)Oc1ccc(-c2cnc3c(-c4ccc(S(N)(=O)=O)c5ccccc45)cnn3c2)cc1 [Compound 17]
PAMPA (x10^−6 cm/s) [1]: 1920.5 x10^−6 cm/s

NS(=O)(=O)c1ccc(-c2cnn3cc(-c4ccc(OCCN5CCCC5)cc4)cnc23)c2ccccc12 [Compound 18]
PAMPA (x10^−6 cm/s) [1]: 317 x10^−6 cm/s

CC(C)(N)c1ccc(-c2cnc3c(-c4ccc(S(N)(=O)=O)c5ccccc45)cnn3c2)cc1 [Compound 20]
PAMPA (x10^−6 cm/s) [1]: 9.4 x10^−6 cm/s

NS(=O)(=O)c1ccc(-c2cnn3cc(-c4ccc(CN5CCCC5)cc4)cnc23)c2ccccc12 [Compound 22]
PAMPA (x10^−6 cm/s) [1]: 467 x10^−6 cm/s

CC(c1ccc(-c2cnc3c(-c4ccc(S(N)(=O)=O)c5ccccc45)cnn3c2)cc1)N1CCCC1 (centres unmarked) [Compound 23]
solubility [2]: 14 µM (≈ 6.97 µg/mL)
PAMPA (x10^−6 cm/s) [1]: 1116.0 x10^−6 cm/s
half-life [3]: 3 to 4 h
